Read-outs that look alike come from different tables or passages of the source.
Details: 37° C., diffusion time 4 h, lidocaine 0.05% (hya 0.25% where present) in donor compartment

Question: Which Flux (pH 3.1) does the source give for `CCN(CC)CC(=O)Nc1c(C)cccc1C` [lidocaine] here?
Answer: 0.32 mg h^−1 cm^−2

Question: And the Flux (pH 6.0)?
Answer: 0.355 mg h^−1 cm^−2

Question: And the Flux (pH 6.5)?
Answer: 0.315 mg h^−1 cm^−2

Question: What about the Flux (pH 6.9) of the same compound?
Answer: 0.42 mg h^−1 cm^−2

Question: What about the Flux (pH 7.7) of the same compound?
Answer: 0.35 mg h^−1 cm^−2

Question: And the Flux (pH 9.0)?
Answer: 0.09 mg h^−1 cm^−2

Reference: patent publication US20060122147A1, “Combination preparation of hyaluronic acid and at least oe local anesthetic and the use thereof” (priority 2002, published 2006)
